Measurements from the supplement of paper PMC11208160.

Assay: recombinant barcode read abundance after kanamycin selection (control-corrected) (log10(CPM+1)); higher = more efficient recombination; sequences stand for … in AGTGCAGAGAAAATCGGCCAGTTTTCTCTGCCTGCAGTCCGCATGCCGT…AGATTTATGCAGCGGACTGCCTTTCTCCCAAAGTGATAAACCGGACAGTATCATGGACCGGTTTTCCCGGTAATCCGTATTTGCAAGGTTGGTTTCACT; site = the 11-nt target
How it was run: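 A vector carrying a T7-inducible recombinase and the last 73 bp of the bridge RNA received, by Gibson cloning, oligos encoding a promoter, target, barcode and the first 104 bridge RNA bases under J23119. The pooled constructs entered E. coli together with a donor plasmid by electroporation. Selection used chloramphenicol/ampicillin/kanamycin with 0.1 mM IPTG, with chloramphenicol/ampicillin LB agar as the control, each in two replicates. Recombination efficiency is the averaged, control-corrected counts-per-million of barcodes at recombinant junctions, reported as log10(CPM+1).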
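Also: IS621 recombinase and bridge RNA in Escherichia coli cells.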

Sequence | recombinant barcode read abundance (log10)
CGTACCTCTTGGGTTCTAACCTGTTGCTC (site CGTACCTCTGA) | 0.171
CGTACCTCTTGGGTTCTAACCTGTTGCTC (site CGTACCTCTTA) | 0.0752
CGTACCTCTTGGGTTCTAACCTGTTGCTG (site CGTACCTCTAA) | 0.21
CGTACCTCTTGGGTTCTAACCTGTTGCTG (site CGTACCTCTCA) | 0.164
CGTACCTCTTGGGTTCTAACCTGTTGCTG (site CGTACCTCTGA) | 0.0169
CGTACCTCTTGGGTTCTAACCTGTTGCTG (site CGTACCTCTTA) | 0.0203
CGTAGCCCTTGGGTTCTAACCTGTTGCGG (site ACATATACTAA) | 0.157
CGTAGCCCTTGGGTTCTAACCTGTTGCGG (site CGTAGCCCTCC) | 0.691
CGTAGGGCTTGGGTTCTAACCTGTTGCCG (site AGTAGGGCTCT) | 0.103
CGTAGGGCTTGGGTTCTAACCTGTTGCCG (site CGTAGGGCTCG) | 0.102
CGTATAGCTTGGGTTCTAACCTGTTGCCT (site CGTATAGCTAG) | 0.285
CGTATAGCTTGGGTTCTAACCTGTTGCCT (site CGTGAAGCTAG) | 0.0599
CGTATATCTTGGGTTCTAACCTGTTGCCT (site CGTATATCTAG) | 0
CGTATATCTTGGGTTCTAACCTGTTGCCT (site CGTGTAACTAG) | 0.0247
CGTATCCCTTGGGTTCTAACCTGTTGCTG (site CGTATCCCTCA) | 0.692
CGTATCCCTTGGGTTCTAACCTGTTGCTG (site CGTCTCCCTAA) | 0.155
CGTATCTCTTGGGTTCTAACCTGTTGCCT (site CCAATCTCTAG) | 0.063
CGTATCTCTTGGGTTCTAACCTGTTGCCT (site CGTATCTCTAG) | 0.406

Sequence | recombinant barcode read abundance (log10)
CGTATGACTTGGGTTCTAACCTGTTGCCT (site AGTATGACTAG) | 0.28
CGTATGACTTGGGTTCTAACCTGTTGCCT (site CGTATGACTAG) | 0.0395
CGTATGACTTGGGTTCTAACCTGTTGCCT (site GGTATGACTAG) | 0.103
CGTATGACTTGGGTTCTAACCTGTTGCCT (site TGTATGACTAG) | 0.05
CGTCAGCCTTGGGTTCTAACCTGTTGCCT (site CGTCAACCTAG) | 0.0431
CGTCAGCCTTGGGTTCTAACCTGTTGCCT (site CGTCACCCTAG) | 0.0486
CGTCAGCCTTGGGTTCTAACCTGTTGCCT (site CGTCAGCCTAG) | 0.22
CGTCAGCCTTGGGTTCTAACCTGTTGCCT (site CGTCATCCTAG) | 0.0681
CGTCGACCTTGGGTTCTAACCTGTTGCAT (site ACCTCTTCTTA) | 0.0126
CGTCGACCTTGGGTTCTAACCTGTTGCAT (site CGTCGACCTAT) | 0.128
CGTCGGACTTGGGTTCTAACCTGTTGCAG (site CGTCGGACTCT) | 0.3
CGTCGGACTTGGGTTCTAACCTGTTGCAG (site TAGTTTGCTTC) | 0.0182
CGTCTAGCTTGGGTTCTAACCTGTTGCAT (site CGTCTAGCTAT) | 0.255
CGTCTAGCTTGGGTTCTAACCTGTTGCAT (site TCGGCCTCTTA) | 0.0729
CGTGACCCTTGGGTTCTAACCTGTTGCTT (site CGGGACCCTAG) | 0.0226
CGTGACCCTTGGGTTCTAACCTGTTGCTT (site CGTGACCCTAA) | 0.691
CGTGAGACTTGGGTTCTAACCTGTTGCCT (site CGTAAGACTAG) | 0.341
CGTGAGACTTGGGTTCTAACCTGTTGCCT (site CGTCAGACTAG) | 0.203
